In US7998989B2, “2-Imino-1,3-thiazoline-based compounds and T-type calcium channel inhibitors containing the same” (Korea Institute of Science and Technology, priority 2007, dated 2011):
Like-named read-outs stand apart in the source and are kept apart here.

Key:
[1] = biological target: T1, α1G T-type calcium channel (Homo sapiens, UniProt O43497); assay: Assay for % inhibiting activity against T-type calcium channel using FDSS6000 (fluo-3 calcium imaging, KCl activation); assay type: cell-based
T1 construct: host or cells: HEK293
Summary of the method: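 Percent inhibition derived from […] area against untreated control (100%), after 75 s compound pre-exposure and 75 mM KCl activation. Cells: HEK293 with stable α1G plus Kir2.1, fluo-3/AM-labelled (5 μM), assayed in pH 7.4 HEPES containing 10 mM CaCl2.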

[2] = HEK293, 10 μM, HEK293 cells stably expressing α1G T-type calcium channel and Kir2.1, compounds of the examples, read-out: FDSS (% inhibition)/10uM
[3] = 10 μM, FDSS (% inhibition), comparative compounds where R6 is a phenyl group, read-out: FDSS

T1 sequence (O43497 whole entry): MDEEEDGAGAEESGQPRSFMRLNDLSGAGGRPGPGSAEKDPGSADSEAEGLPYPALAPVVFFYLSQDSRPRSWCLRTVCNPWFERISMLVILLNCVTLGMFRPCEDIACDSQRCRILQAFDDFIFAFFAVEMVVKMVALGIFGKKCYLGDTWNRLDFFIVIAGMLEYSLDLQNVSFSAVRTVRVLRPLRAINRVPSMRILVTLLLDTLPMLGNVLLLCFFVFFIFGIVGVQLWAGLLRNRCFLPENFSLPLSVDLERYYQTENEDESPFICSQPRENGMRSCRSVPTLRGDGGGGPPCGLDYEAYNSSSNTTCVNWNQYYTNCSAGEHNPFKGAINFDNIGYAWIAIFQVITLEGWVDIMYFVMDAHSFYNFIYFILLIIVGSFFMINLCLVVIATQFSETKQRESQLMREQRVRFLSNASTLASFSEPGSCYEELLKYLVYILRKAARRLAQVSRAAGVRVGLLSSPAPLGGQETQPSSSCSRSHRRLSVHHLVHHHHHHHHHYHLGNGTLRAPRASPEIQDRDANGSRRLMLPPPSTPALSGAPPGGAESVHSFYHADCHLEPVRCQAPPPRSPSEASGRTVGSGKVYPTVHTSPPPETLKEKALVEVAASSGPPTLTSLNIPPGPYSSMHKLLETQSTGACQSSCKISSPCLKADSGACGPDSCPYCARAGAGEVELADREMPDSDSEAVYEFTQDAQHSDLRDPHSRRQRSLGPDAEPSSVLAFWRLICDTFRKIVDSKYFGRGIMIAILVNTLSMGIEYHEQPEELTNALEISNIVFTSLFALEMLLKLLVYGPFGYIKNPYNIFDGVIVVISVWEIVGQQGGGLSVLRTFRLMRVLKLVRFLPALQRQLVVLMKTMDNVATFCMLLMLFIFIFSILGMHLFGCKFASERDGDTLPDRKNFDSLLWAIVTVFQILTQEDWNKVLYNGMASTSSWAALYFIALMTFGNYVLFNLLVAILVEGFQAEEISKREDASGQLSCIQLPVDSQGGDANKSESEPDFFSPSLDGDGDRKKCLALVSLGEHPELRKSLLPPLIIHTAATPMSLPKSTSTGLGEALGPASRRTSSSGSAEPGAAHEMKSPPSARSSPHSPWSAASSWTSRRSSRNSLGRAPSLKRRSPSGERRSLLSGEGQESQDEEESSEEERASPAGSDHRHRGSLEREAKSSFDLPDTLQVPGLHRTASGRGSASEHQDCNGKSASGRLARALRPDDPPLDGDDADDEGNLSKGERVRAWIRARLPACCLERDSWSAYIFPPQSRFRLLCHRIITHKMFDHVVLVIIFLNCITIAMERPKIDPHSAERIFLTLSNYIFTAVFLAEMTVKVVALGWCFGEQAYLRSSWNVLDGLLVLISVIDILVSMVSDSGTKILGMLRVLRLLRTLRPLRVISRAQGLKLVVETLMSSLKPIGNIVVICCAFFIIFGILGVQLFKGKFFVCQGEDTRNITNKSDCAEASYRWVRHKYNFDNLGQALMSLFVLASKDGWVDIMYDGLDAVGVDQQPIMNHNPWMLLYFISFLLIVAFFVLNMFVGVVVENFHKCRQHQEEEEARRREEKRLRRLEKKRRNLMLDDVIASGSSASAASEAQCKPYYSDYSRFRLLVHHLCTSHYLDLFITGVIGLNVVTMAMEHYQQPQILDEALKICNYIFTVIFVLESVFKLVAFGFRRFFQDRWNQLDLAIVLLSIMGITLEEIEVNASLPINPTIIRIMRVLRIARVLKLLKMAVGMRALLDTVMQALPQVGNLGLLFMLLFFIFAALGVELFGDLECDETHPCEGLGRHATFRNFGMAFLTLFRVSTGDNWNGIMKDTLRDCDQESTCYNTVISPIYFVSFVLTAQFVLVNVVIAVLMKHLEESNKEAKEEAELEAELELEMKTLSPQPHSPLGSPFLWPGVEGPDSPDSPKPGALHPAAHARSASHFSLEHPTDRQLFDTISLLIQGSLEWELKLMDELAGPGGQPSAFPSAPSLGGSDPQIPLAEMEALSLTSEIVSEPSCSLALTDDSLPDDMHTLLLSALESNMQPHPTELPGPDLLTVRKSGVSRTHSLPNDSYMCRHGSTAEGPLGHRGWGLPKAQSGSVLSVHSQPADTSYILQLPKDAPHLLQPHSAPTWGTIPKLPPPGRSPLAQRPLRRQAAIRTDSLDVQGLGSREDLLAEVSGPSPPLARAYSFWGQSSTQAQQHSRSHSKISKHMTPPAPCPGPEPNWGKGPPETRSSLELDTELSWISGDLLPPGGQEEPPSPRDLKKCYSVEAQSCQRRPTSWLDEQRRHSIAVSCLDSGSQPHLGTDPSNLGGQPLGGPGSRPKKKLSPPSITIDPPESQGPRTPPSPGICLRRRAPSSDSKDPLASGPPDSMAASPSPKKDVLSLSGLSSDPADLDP

SMILES	inhibition at 10 µM [1, 2] [%]	melting point [°C]	inhibition at 10 µM [1, 3] [%]
CN1C(=NC2CCCCCC2)SCC1C(=O)NCc1cccc(Cl)c1.Cl (stereo not drawn) [KHG24336, (2-cycloheptylimino-3-methyl-1,3-thiazolidine-4-yl)-N-(3-chlorobenzyl)-carboxamide hydrochloride]	60.1	230 to 231	–
CN1C(=Nc2ccc(Br)cc2)SCC1CC(=O)Nc1ccc(Cl)cc1F.Cl (stereo not drawn) [KHG23065, [2-(4-bromophenylimino)-3-methyl-1,3-thiazolidine-4-yl]-N-(4-chloro-2-fluorophenyl)-acetamide hydrochloride]	–	239 to 240	3.57
CCCN1C(=NC2CCCCC2)SCC1CC(=O)Nc1ccc(Br)cc1.Cl (stereo not drawn) [KHG24288, [2-cyclohexylimino-3-(n-propyl)-1,3-thiazolidine-4-yl]-N-(4-bromophenyl)-acetamide hydrochloride]	55	219.1	–
CCCN1C(=NC2CCCCC2)SCC1CC(=O)Nc1cc(Cl)cc(Cl)c1.Cl (stereo not drawn) [KHG24415, [2-cyclohexylimino-3-(n-propyl)-1,3-thiazolidine-4-yl]-N-(3,5-dichlorophenyl)-acetamide hydrochloride]	64.2	109.2	–
CCCCc1ccc(N=C2SCC(CC(=O)Nc3ccc(Cl)cc3)N2C)cc1.Cl (stereo not drawn) [KHG21654, [2-(4-n-butylphenylimino)-3-methyl-1,3-thiazolidine-4-yl]-N-(4-chlorophenyl)-acetamide hydrochloride]	–	239 to 241	-1.13
CCN1C(=NC2CCCCC2)SCC1CC(=O)Nc1cc(Cl)cc(Cl)c1.Cl (stereo not drawn) [KHG24414, (2-cyclohexylimino-3-ethyl-1,3-thiazolidine-4-yl)-N-(3,5-dichlorophenyl)-acetamide hydrochloride]	61	100.5	–
Cl.O=C(CC1CSC(=NC2CCCCC2)N1C1CC1)Nc1cc(C(F)(F)F)cc(C(F)(F)F)c1 (stereo not drawn) [KHG24267, [2-cyclohexylimino-3-cyclopropyl-1,3-thiazolidine-4-yl]-N-(3,5-ditrifluoromethylphenyl)-acetamide hydrochloride]	71	197.3	–
CN1C(=NC2CCCCCC2)SCC1CC(=O)Nc1ccc([N+](=O)[O-])cc1.Cl (stereo not drawn) [KHG24445, (2-cycloheptylimino-3-methyl-1,3-thiazolidine-4-yl)-N-(4-nitrophenyl)-acetamide hydrochloride]	50.8	242	–
CN1C(=NC2CCCC2)SCC1CC(=O)Nc1ccc(Cl)cc1.Cl (stereo not drawn) [KHG24106, (2-cyclopentylimino-3-methyl-1,3-thiazolidine-4-yl)-N-(4-chlorophenyl)-acetamide hydrochloride]	49.4	215 to 216	–
Cl.O=C(CC1CSC(=NC2CCCCC2)N1C1CC1)Nc1ccc(Oc2ccccc2)cc1 (stereo not drawn) [KHG24315, (2-cyclohexylimino-3-cyclopropyl-1,3-thiazolidine-4-yl)-N-(4-phenoxyphenyl)-acetamide hydrochloride]	60.8	195	–
CCN1C(=NC2CCCCC2)SCC1CC(=O)Nc1ccc(C)cc1Cl.Cl (stereo not drawn) [KHG24420, (2-cyclohexylimino-3-ethyl-1,3-thiazolidine-4-yl)-N-(2-chloro-4-methylphenyl)-acetamide hydrochloride]	58.5	115	–
CC(C)c1ccc(NC(=O)CC2CSC(=Nc3cccc(Br)c3)N2C)cc1.Cl (stereo not drawn) [KHG21949, [2-(3-bromophenylimino)-3-methyl-1,3-thiazolidine-4-yl]-N-(4-isopropylphenyl)-acetamide hydrochloride]	–	198 to 201	5.41
COc1cccc(NC(=O)CC2CSC(=NC3CCCCC3)N2C)c1.Cl (stereo not drawn) [KHG24076, (2-cyclohexylimino-3-methyl-1,3-thiazolidine-4-yl)-N-(3-methoxyphenyl)-acetamide hydrochloride]	39.9	156 to 158	–
CN1C(=NC2CCCCC2)SCC1CC(=O)Nc1cccc([N+](=O)[O-])c1.Cl (stereo not drawn) [KHG24108, (2-cyclohexylimino-3-methyl-1,3-thiazolidine-4-yl)-N-(3-nitrophenyl)-acetamide hydrochloride]	44.4	207	–
CCCN1C(=NC2CCCCC2)SCC1CC(=O)Nc1cc([N+](=O)[O-])ccc1F.Cl (stereo not drawn) [KHG24295, [2-cyclohexylimino-3-(n-propyl)-1,3-thiazolidine-4-yl]-N-(2-fluoro-5-nitrophenyl)-acetamide hydrochloride]	36.2	139.2	–

More lines, now with the values ahead:

inhibition at 10 µM [1, 2] [%]	melting point [°C]	inhibition at 10 µM [1, 3] [%]	SMILES
60.5	130	–	CCCN1C(=NC23CC4CC(CC(C4)C2)C3)SCC1CC(=O)Nc1cc(Cl)ccc1F.Cl (stereo not drawn) [KHG24817, [2-(1-adamantylimino)-3-n-propyl-1,3-thiazolidine-4-yl]-N-(5-chloro-2-fluorophenyl)-acetamide hydrochloride]
46.9	232.8	–	CN1C(=NC2CCCCCC2)SCC1C(=O)Nc1ccccc1Br.Cl (stereo not drawn) [KHG24634, (2-cycloheptylimino-3-methyl-1,3-thiazolidine-4-yl)-N-(2-bromophenyl)-carboxamide hydrochloride]
59.7	145	–	CCCN1C(=NC23CC4CC(CC(C4)C2)C3)SCC1CC(=O)Nc1cc([N+](=O)[O-])ccc1F.Cl (stereo not drawn) [KHG24839, [2-(1-adamantylimino)-3-n-propyl-1,3-thiazolidine-4-yl]-N-(2-fluoro-5-nitrophenyl)-acetamide hydrochloride]
54.6	247 to 249	–	CCCCc1ccc(NC(=O)CC2C(C)SC(=NC3CCCCCC3)N2C)cc1.Cl (stereo not drawn) [KHG24516, (2-cycloheptylimino-3,5-dimethyl-1,3-thiazolidine-4-yl)-N-(4-n-butylphenyl)-acetamide hydrochloride]
68.2	201	–	CCCN1C(=NC23CC4CC(CC(C4)C2)C3)SCC1CC(=O)Nc1ccc(C)cc1Cl.Cl (stereo not drawn) [KHG24818, [2-(1-adamantylimino)-3-n-propyl-1,3-thiazolidine-4-yl]-N-(2-chloro-4-methylphenyl)-acetamide hydrochloride]
48.5	248 to 250	–	Cc1ccc(NC(=O)CC2C(C)SC(=NC3CCCCCC3)N2C)cc1.Cl (stereo not drawn) [KHG24639, (2-cycloheptylimino-3,5-dimethyl-1,3-thiazolidine-4-yl)-N-(4-methylphenyl)-acetamide hydrochloride]
64.8	261 to 263	–	CC1SC(=NC2CCCCCC2)N(C)C1CC(=O)Nc1ccc(C(F)(F)F)cc1.Cl (stereo not drawn) [KHG24520, (2-cycloheptylimino-3,5-dimethyl-1,3-thiazolidine-4-yl)-N-(4-trifluoromethylphenyl)-acetamide hydrochloride]
33.8	169	–	CCCCc1ccc(NC(=O)CC2CSC(=NC34CC5CC(CC(C5)C3)C4)N2CCCC)cc1.Cl (stereo not drawn) [KHG24776, [2-(1-adamantylimino)-3-(n-butyl)-1,3-thiazolidine-4-yl]-N-(4-n-butylphenyl)-acetamide hydrochloride]
46.5	246	–	CC(C)N1C(=NC23CC4CC(CC(C4)C2)C3)SCC1CC(=O)Nc1ccc(C(F)(F)F)cc1.Cl (stereo not drawn) [KHG24826, [2-(1-adamantylimino)-3-isopropyl-1,3-thiazolidine-4-yl]-N-(4-trifluoromethylphenyl)-acetamide hydrochloride]
54.3	239 to 241	–	CC1SC(=NC2CCCCCC2)N(C)C1CC(=O)Nc1ccc(C(C)(C)C)cc1.Cl (stereo not drawn) [KHG24521, (2-cycloheptylimino-3,5-dimethyl-1,3-thiazolidine-4-yl)-N-(4-t-butylphenyl)-acetamide hydrochloride]
36.6	172	–	CCCCN1C(=NC23CC4CC(CC(C4)C2)C3)SCC1CC(=O)Nc1ccc(Br)cc1.Cl (stereo not drawn) [KHG24784, [2-(1-adamantylimino)-3-(n-butyl)-1,3-thiazolidine-4-yl]-N-(4-bromophenyl)-acetamide hydrochloride]
45.7	240	–	CN1C(=NC2CCCCC2)SCC1CC(=O)Nc1cc(F)cc(F)c1.Cl (stereo not drawn) [KHG24534, (2-cyclohexylimino-3-methyl-1,3-thiazolidine-4-yl)-N-(3,5-difluorophenyl)-acetamide hydrochloride]
69.2	158	–	CCN1C(=NC23CC4CC(CC(C4)C2)C3)SCC1CC(=O)Nc1ccc(C(C)C)cc1.Cl (stereo not drawn) [KHG24819, [2-(1-adamantylimino)-3-ethyl-1,3-thiazolidine-4-yl]-N-(4-isopropylphenyl)-acetamide hydrochloride]
50.7	197.3	–	Br.CN1C(=NC2CCCCCC2)SCC1C(=O)NCc1cccc(Br)c1 (stereo not drawn) [KHG24668, (2-cycloheptylimino-3-methyl-1,3-thiazolidine-4-yl)-N-(3-bromobenzyl)-carboxamide hydrobromide]
30.6	156	–	CCCCN1C(=NC23CC4CC(CC(C4)C2)C3)SCC1CC(=O)Nc1ccc(CC)cc1.Cl (stereo not drawn) [KHG24782, [2-(1-adamantylimino)-3-(n-butyl)-1,3-thiazolidine-4-yl]-N-(4-ethylphenyl)-acetamide hydrochloride]
